What all share (assay type): cell-based
The test system of one assay is ARPE-19 cells. The assay is described as follows: Transdifferentiation of ARPE-19 cells into eye neuronal cells [photoreceptors], PAX6 staining. Conditions: Homo sapiens, fixed at 40 hours, PAX6 antibody staining, normalized to DMSO. The protocol: The above synthesized compounds were screened using ARPE-19 cells [a spontaneously arising retinal pigment epithelia (RPE) cell line] to determine their ability to transdifferentiate ARPE-19 into eye neuronal cells [photoreceptors].
ARPE-19 cells are cultured in standard culture medium containing Dulbecco's Modified Eagle's Medium and Ham's F12 Nutrient Mixture (DMEM/F12) mix (1:1)+GlutaMax with 1% penicillin-Streptomycin and 10% FBS (Fetal Bovine Serum). Cells are incubated at 37° C. with 5% CO2. Cells are trypsinized and plated onto 384-well pre-spotted plate at a density of 3000 cells/well in 50 uL of media. Plating media: DMEM/F12 (1:1)+3% charcoal filtered-FBS+GlutaMax+1% pen/Strep. Cells are incubated at 37° C. with 5% CO2. At 40 hours, cells were fixed for 15 min with 10% Buffered Formalin. Cells were then washed 3 times with PBS for 5 min each, permeablize using 0.3% Triton X-100 in 1×PBS for 30 min, block for 1 hr with 2% BSA in 1×PBS with 0.1% Triton X-100. The primary antibody (1:100 PAX6 Santa Cruz Biotech; sc-81649) was diluted and 10 μL/well was added to the cells. The cells were incubated overnight at 4° C. […] Readings were normalized to DMSO only treated cells, and normalized activities were utilized for EC50 calculations using the dose-response log (activator) vs. response-variable slope (four parameters) nonlinear regression feature available in GraphPad Prism 5.0 or 6.0.

Another assay has as its system LL29 cells. The assay is described as follows: Inhibition of the fibrotic process (αSMA staining) in TGF-β1 treated primary human fibroblasts from IPF patients. Conditions: Fibroblast, 96 h, TGF-β1 20 ng/mL, 4 days, dose-response 10 μM to 1.87 nM, read-out: Inhibition of fibrosis EC50. An outline of the steps: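 LL29 IPF lung fibroblasts in 1% FBS were stimulated with TGF-β1 (20 ng/mL) and treated 4 days at 37 °C with compound (11 points, 10 μM–1.87 nM, 0.1% DMSO). The % αSMA-positive cells, imaged after excluding SYTOX-positive dead cells, was normalized to TGF-β1/DMSO wells. EC50 came from nonlinear regression over triplicates.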

Assay [1] concerns Wnt pathway (Sp5-Luc reporter, SW480 cells). In words: Sp5-Luc reporter gene screening assay for Wnt activity in SW480 colon carcinoma cells. The following applies: Homo sapiens. An outline of the steps: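 IC50 values come from variable-slope four-parameter fits of luciferase signal normalized to DMSO wells. Stable Sp5-Luc reporter SW480 colon carcinoma cells were exposed to compounds in a 3-fold dilution series (source plates from 10 mM stock) for forty-two hours at 37 °C.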

A word on the EC50: it is the concentration that produces a half-maximal response. The term IC50 denotes the point on the concentration scale where inhibition reaches its midpoint. High values mean weaker potency, low ones greater potency. As to `CN(C)CCOc1cncc(-c2cc3c(-c4nc5c(-c6cccc(F)c6)nccc5[nH]4)n[nH]c3cn2)c1` [Compound 947, 2-((5-(3-(4-(3-Fluorophenyl)-1H-imidazo[4,5-c]pyridin-2-yl)-1H-pyrazolo [3,4-c]pyridin-5-yl)pyridin-3-yl)oxy)-N,N-dimethylethan-1-amine], the EC50 with ARPE-19 cells is 0.035 µM; in the assay on LL29 cells it was 0.484 µM. This molecule also registered an IC50 in assay [1] of 0.099 µM.

(Values after patent US9844536B2, “3-(1H-imidazo[4,5-C]pyridin-2-yl)-1H-pyrazolo[3,4-C]pyridine and therapeutic uses thereof” (Samumed, LLC, priority 2014, dated 2017).)
